{
  "source": "patent US9718828B2",
  "about": "(MERCK SHARP & DOHME CORP., priority 2011, dated 2017)",
  "note": "Structures can show the parent of a compound that is named as a salt.",
  "data": [
    {"molecular_target": "hBTK (full-length BTK, 6HIS-tag cleaved) (Homo sapiens (Human), UniProt Q06187)", "sequence (Q06187 whole entry)": "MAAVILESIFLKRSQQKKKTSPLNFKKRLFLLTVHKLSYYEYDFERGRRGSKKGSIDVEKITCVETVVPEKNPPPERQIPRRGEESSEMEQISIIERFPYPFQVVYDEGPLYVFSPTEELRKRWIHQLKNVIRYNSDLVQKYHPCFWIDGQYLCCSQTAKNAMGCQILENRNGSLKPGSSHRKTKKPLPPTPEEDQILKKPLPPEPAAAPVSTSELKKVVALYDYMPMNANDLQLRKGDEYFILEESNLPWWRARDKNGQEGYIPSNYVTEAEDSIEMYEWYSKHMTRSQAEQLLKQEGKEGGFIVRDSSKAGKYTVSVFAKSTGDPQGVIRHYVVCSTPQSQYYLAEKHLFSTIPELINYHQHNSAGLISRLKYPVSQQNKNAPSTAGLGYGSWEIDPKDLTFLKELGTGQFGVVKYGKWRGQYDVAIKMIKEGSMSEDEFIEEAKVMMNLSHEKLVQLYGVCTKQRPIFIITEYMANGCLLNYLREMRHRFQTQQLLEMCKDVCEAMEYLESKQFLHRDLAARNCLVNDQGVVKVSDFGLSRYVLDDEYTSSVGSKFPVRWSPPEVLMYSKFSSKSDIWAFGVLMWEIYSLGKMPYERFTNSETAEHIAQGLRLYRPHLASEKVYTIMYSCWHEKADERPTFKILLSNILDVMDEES", "test": "BTK enzymatic activity, LANCE TR-FRET assay (Assay Method C)", "assay_type": "biochemical", "conditions": "LANCE TR-FRET, 50 pM hBTK, 25 μM ATP; class 100-1000 is given as ≧100 nM-<1 μM; read-out: IC50 Btk activity values - Assay Method C", "units": {"IC50": "µM"}, "values": [
      {"smiles": "CCc1ccnc(NC(=O)c2ccc(-c3nc([C@@H]4CCCN(C(=O)C5(C)COC5)C4)n4ccnc(N)c34)cc2)c1", "note": "[Example 362, 4-(8-amino-3-{(3R)-1-[(3-methyloxetan-3-yl)carbonyl]piperidin-3-yl}imidazo[1,5-a]pyrazin-1-yl)-N-(4-ethylpyridin-2-yl)benzamide]", "IC50": "< 0.01"},
      {"smiles": "COc1ccnc(NC(=O)c2ccc(-c3nc([C@@H]4CCCN(C(=O)C5(C)COC5)C4)n4c(C)cnc(N)c34)cc2)c1", "note": "[Example 459, 4-(8-amino-5-methyl-3-{(3R)-1-[(3-methyloxetan-3-yl)carbonyl]piperidin-3-yl}imidazo[1,5-a]pyrazin-1-yl)-N-(4-methoxypyridin-2-yl)benzamide]", "IC50": "< 0.01"},
      {"smiles": "C[C@H](O)C(=O)N1CCO[C@@H](c2nc(-c3ccc(C(=O)Nc4cc(C(F)(F)F)ccn4)cc3)c3c(N)nccn23)C1", "note": "[Example 519, 4-(8-amino-3-{(2R)-4-[(2S)-2-hydroxypropanoyl]morpholin-2-yl}imidazo[1,5-a]pyrazin-1-yl)-N-[4-(trifluoromethyl)pyridin-2-yl]benzamide]", "IC50": "< 0.01"},
      {"smiles": "CCOCCN1CCO[C@@H](c2nc(-c3ccc(C(=O)Nc4cc(C(F)(F)F)ccn4)cc3)c3c(N)ncc(C)n23)C1", "note": "[Example 541, 4-{8-amino-3-[(2R)-4-(2-ethoxyethyl)morpholin-2-yl]-5-methylimidazo[1,5-a]pyrazin-1-yl}-N-[4-(trifluoromethyl)pyridin-2-yl]benzamide, TFA salt]", "IC50": "< 0.01"},
      {"smiles": "Nc1nccc2c1c(-c1ccc(C(=O)Nc3cc(C(F)(F)F)ccn3)cc1)nn2[C@@H]1CCCN(C(=O)C2CC2)C1", "note": "[Example 384, 4-{4-amino-1-[(3R)-1-(cyclopropylcarbonyl)piperidin-3-yl]-1H-pyrazolo[4,3-c]pyridin-3-yl}-N-[4-(trifluoromethyl)pyridin-2-yl]benzamide]", "IC50": "< 0.01"},
      {"smiles": "COc1ccnc(NC(=O)c2ccc(-c3nn([C@@H]4CCCN(C(=O)C5(C)COC5)C4)c4ccnc(N)c34)cc2)c1", "note": "[Example 388, 4-(4-amino-1-{(3R)-1-[(3-methyloxetan-3-yl)carbonyl]piperidin-3-yl}-1H-pyrazolo[4,3-c]pyridin-3-yl)-N-(4-methoxypyridin-2-yl)benzamide]", "IC50": "< 0.01"},
      {"smiles": "CC1(C(=O)N2CCC[C@@H](c3nc(-c4ccc(C(=O)Nc5cc(C(F)(F)F)ccn5)cc4)c4c(N)ncc(CO)n34)C2)COC1", "note": "[Example 471, 4-[8-amino-5-(hydroxymethyl)-3-{(3R)-1-[(3-methyloxetan-3-yl)carbonyl]piperidin-3-yl}imidazo[1,5-a]pyrazin-1-yl]-N-[4-(trifluoromethyl)pyridin-2-yl]benzamide]", "IC50": "< 0.01"},
      {"smiles": "CCOCC(=O)N1CCO[C@@H](c2nc(-c3ccc(C(=O)Nc4cc(C(F)(F)F)ccn4)cc3)c3c(N)ncc(C)n23)C1", "note": "[Example 537, 4-{8-amino-3-[(2R)-4-(ethoxyacetyl)morpholin-2-yl]-5-methylimidazo[1,5-a]pyrazin-1-yl}-N-[4-(trifluoromethyl)pyridin-2-yl]benzamide, TFA salt]", "IC50": "< 0.01"},
      {"smiles": "C[C@H]1CC[C@@H](c2nc(-c3ccc(C(=O)Nc4cc(C(F)F)ccn4)cc3F)c3c(N)nccn23)CN1C(=O)C1CC1", "note": "[Example 436, 4-{8-amino-3-[(3R,6S)-1-(cyclopropylcarbonyl)-6-methylpiperidin-3-yl]imidazo[1,5-a]pyrazin-1-yl}-N-[4-(difluoromethyl)pyridin-2-yl]-3-fluorobenzamide]", "IC50": "< 0.01"},
      {"smiles": "CN1C[C@@H](c2nc(-c3ccc(C(=O)Nc4cc(C(F)(F)F)ccn4)cc3)c3c(N)nccn23)CC[C@@H]1C(F)(F)F", "note": "[Example 410, 4-{8-amino-3-[(3S,6R)-1-methyl-6-(trifluoromethyl)piperidin-3-yl]imidazo[1,5-a]pyrazin-1-yl}-N-[4-(trifluoromethyl)pyridin-2-yl]benzamide]", "IC50": "< 0.01"},
      {"smiles": "Nc1ncc(Cl)n2c([C@H]3CNCCO3)nc(-c3ccc(C(=O)Nc4cc(C(F)(F)F)ccn4)cc3)c12", "note": "[Example 504, 4-{8-amino-5-chloro-3-[(2R)-morpholin-2-yl]imidazo[1,5-a]pyrazin-1-yl}-N-[4-(trifluoromethyl)pyridin-2-yl]benzamide]", "IC50": "< 0.01"},
      {"smiles": "C[C@H]1CC[C@@H](c2nc(-c3ccc(C(=O)Nc4cc(C(F)F)ccn4)cc3F)c3c(N)nccn23)CN1C(=O)C1(C)COC1", "note": "[Example 434, 4-(8-amino-3-{(3R,6S)-6-methyl-1-[(3-methyloxetan-3-yl)carbonyl]piperidin-3-yl}imidazo[1,5-a]pyrazin-1-yl)-N-[4-(difluoromethyl)pyridin-2-yl]-3-fluorobenzamide]", "IC50": "< 0.01"},
      {"smiles": "CC(C)COc1ccnc(NC(=O)c2ccc(-c3nc([C@@H]4CC[C@H](C)N(C(=O)C5(C)COC5)C4)n4ccnc(N)c34)cc2)c1", "note": "[Example 417, 4-(8-amino-3-{(3R,6S)-6-methyl-1-[(3-methyloxetan-3-yl)carbonyl]piperidin-3-yl}imidazo[1,5-a]pyrazin-1-yl)-N-[4-(2-methylpropoxy)pyridin-2-yl]benzamide]", "IC50": "< 0.01"},
      {"smiles": "N#CCCN1CCO[C@@H](c2nc(-c3ccc(C(=O)Nc4cc(C(F)(F)F)ccn4)cc3)c3c(N)nccn23)C1", "note": "[Example 532, 4-{8-amino-3-[(2R)-4-(2-cyanoethyl)morpholin-2-yl]imidazo[1,5-a]pyrazin-1-yl}-N-[4-(trifluoromethyl)pyridin-2-yl]benzamide]", "IC50": "< 0.01"},
      {"smiles": "CC1(C(=O)N2CCC[C@@H](c3nc(-c4ccc(C(=O)Nc5ccc(F)cn5)cc4)c4c(N)nccn34)C2)COC1", "note": "[Example 351, 4-(8-amino-3-{(3R)-1-[(3-methyloxetan-3-yl)carbonyl]piperidin-3-yl}imidazo[1,5-a]pyrazin-1-yl)-N-(5-fluoropyridin-2-yl)benzamide]", "IC50": "0.01 to 0.1"},
      {"smiles": "C[C@@H](O)C(=O)N1CCO[C@@H](c2nc(-c3ccc(C(=O)Nc4cc(C(F)(F)F)ccn4)cc3)c3c(N)ncc(Cl)n23)C1", "note": "[Example 524, 4-(8-amino-5-chloro-3-{(2R)-4-[(2R)-2-hydroxypropanoyl]morpholin-2-yl}imidazo[1,5-a]pyrazin-1-yl)-N-[4-(trifluoromethyl)pyridin-2-yl]benzamide]", "IC50": "< 0.01"},
      {"smiles": "CC1(C(=O)N2CCC[C@@H](c3nc(-c4ccc(C(=O)Nc5cc(C(F)(F)F)ccn5)cc4)c4c(N)ncc(C5(O)COC5)n34)C2)COC1", "note": "[Example 469, 4-[8-amino-5-(3-hydroxyoxetan-3-yl)-3-{(3R)-1-[(3-methyloxetan-3-yl)carbonyl]piperidin-3-yl}imidazo[1,5-a]pyrazin-1-yl]-N-[4-(trifluoromethyl)pyridin-2-yl]benzamide]", "IC50": "0.01 to 0.1"},
      {"smiles": "COCCOCC(=O)N1CCO[C@@H](c2nc(-c3ccc(C(=O)Nc4cc(C(F)(F)F)ccn4)cc3)c3c(N)ncc(Cl)n23)C1", "note": "[Example 529, 4-(8-amino-5-chloro-3-{(2R)-4-[(2-methoxyethoxy)acetyl]morpholin-2-yl}imidazo[1,5-a]pyrazin-1-yl)-N-[4-(trifluoromethyl)pyridin-2-yl]benzamide]", "IC50": "< 0.01"},
      {"smiles": "COCCN1CCO[C@@H](c2nc(-c3ccc(C(=O)Nc4cc(C(F)(F)F)ccn4)cc3)c3c(N)ncc(Cl)n23)C1", "note": "[Example 542, 4-{8-amino-5-chloro-3-[(2R)-4-(2-methoxyethyl)morpholin-2-yl]imidazo[1,5-a]pyrazin-1-yl}-N-[4-(trifluoromethyl)pyridin-2-yl]benzamide, TFA salt]", "IC50": "< 0.01"},
      {"smiles": "CC1(C(=O)N2CCC[C@@H](c3nc(-c4ccc(C(=O)Nc5ccc(Cl)cn5)cc4)c4c(N)nccn34)C2)COC1", "note": "[Example 358, 4-(8-amino-3-{(3R)-1-[(3-methyloxetan-3-yl)carbonyl]piperidin-3-yl}imidazo[1,5-a]pyrazin-1-yl)-N-(5-chloropyridin-2-yl)benzamide]", "IC50": "< 0.01"},
      {"smiles": "CN1CC[C@@H](C(=O)N2CCC[C@@H](c3nc(-c4ccc(C(=O)Nc5cc(C(F)(F)F)ccn5)cc4)c4c(N)nccn34)C2)C1", "note": "[Example 348, 4-(8-amino-3-[(3R)-1-{[(3R)-1-methylpyrrolidin-3-yl]carbonyl}piperidin-3-yl]imidazo[1,5-a]pyrazin-1-yl}-N-[4-(trifluoromethyl)pyridin-2-yl]benzamide]", "IC50": "< 0.01"},
      {"smiles": "C[C@@H](O)C(=O)N1CCC[C@@H](c2nc(-c3ccc(C(=O)Nc4cc(C(F)(F)F)ccn4)cc3)c3c(N)nccn23)C1", "note": "[Example 346, 4-(8-amino-3-{(3R)-1-[(2R)-2-hydroxypropanoyl]piperidin-3-yl}imidazo[1,5-a]pyrazin-1-yl)-N-[4-(trifluoromethyl)pyridin-2-yl]benzamide]", "IC50": "< 0.01"},
      {"smiles": "CCN1C[C@@H](c2nc(-c3ccc(C(=O)Nc4ccccn4)cc3)c3c(N)nccn23)CC[C@@H]1C(F)(F)F", "note": "[Example 408, 4-{8-amino-3-[(3S,6R)-1-ethyl-6-(trifluoromethyl)piperidin-3-yl]imidazo[1,5-a]pyrazin-1-yl}-N-pyridin-2-ylbenzamide]", "IC50": "< 0.01"},
      {"smiles": "CC1(C(=O)N2CCC[C@@H](n3nc(-c4ccc(C(=O)Nc5cc(C(F)(F)F)ccn5)cc4)c4c(N)nccc43)C2)COC1", "note": "[Example 381, 4-(4-amino-1-{(3R)-1-[(3-methyloxetan-3-yl)carbonyl]piperidin-3-yl}-1H-pyrazolo[4,3-c]pyridin-3-yl)-N-[4-(trifluoromethyl)pyridin-2-yl]benzamide]", "IC50": "< 0.01"},
      {"smiles": "CCN1CCO[C@@H](c2nc(-c3ccc(C(=O)Nc4cc(C(F)(F)F)ccn4)cc3)c3c(N)ncc(C)n23)C1", "note": "[Example 511, 4-{8-amino-3-[(2R)-4-ethylmorpholin-2-yl]-5-methylimidazo[1,5-a]pyrazin-1-yl}-N-[4-(trifluoromethyl)pyridin-2-yl]benzamide]", "IC50": "< 0.01"},
      {"smiles": "CNC(=O)N1C[C@@H](c2nc(-c3ccc(C(=O)Nc4cc(C(F)(F)F)ccn4)cc3)c3c(N)nccn23)CC[C@@H]1C(F)(F)F", "note": "[Example 412, (2R,5S)-5-[8-amino-1-(4-{[4-(trifluoromethyl)pyridin-2-yl]carbamoyl}phenyl)imidazo[1,5-a]pyrazin-3-yl]-N-methyl-2-(trifluoromethyl)piperidine-1-carboxamide]", "IC50": "< 0.01"}
    ]},
    {"molecular_target": "hBTK (full-length BTK, 6HIS-tag cleaved) (Homo sapiens (Human), UniProt Q06187)", "test": "BTK enzymatic activity, LANCE TR-FRET assay (Assay Method C)", "assay_type": "biochemical", "conditions": "Table D; Assay Method C (LANCE TR-FRET), 50 pM hBTK, 25 μM ATP; read-out: IC50 BTK activity value", "units": {"IC50": "µM"}, "values": [
      {"smiles": "C[C@H]1CC[C@@H](c2nc(-c3ccc(C(=O)Nc4cc(C(F)F)ccn4)cc3F)c3c(N)nccn23)CN1C(=O)C1CC1", "note": "[Example 436, 4-{8-amino-3-[(3R,6S)-1-(cyclopropylcarbonyl)-6-methylpiperidin-3-yl]imidazo[1,5-a]pyrazin-1-yl}-N-[4-(difluoromethyl)pyridin-2-yl]-3-fluorobenzamide]", "IC50": 0.00048},
      {"smiles": "C[C@@H](O)C(=O)N1CCC[C@@H](c2nc(-c3ccc(C(=O)Nc4cc(C(F)(F)F)ccn4)cc3)c3c(N)nccn23)C1", "note": "[Example 346, 4-(8-amino-3-{(3R)-1-[(2R)-2-hydroxypropanoyl]piperidin-3-yl}imidazo[1,5-a]pyrazin-1-yl)-N-[4-(trifluoromethyl)pyridin-2-yl]benzamide]", "IC50": 0.000219}
    ]}
  ]
}
